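Grown in 96-well plates, cells were treated for 48 hours with each compound at five concentrations. Insufficient inhibition: endpoint recorded as highest concentration tested. GI50: concentration for 50% inhibition of growth. TGI: total growth inhibition.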

What all share (test): inhibition of tumour cell growth, NCI panel, 48 h
Assay [1] deals with NCI-H226 lung.
Assay [2] concerns RPMI-8226 leukemia.
Assay [3] relates to ACHN renal.
Assay [4] deals with CCRF-CEM leukemia.
Assay [5] concerns KM12 colon.
The subject of assay [6] is SW-620 colon.
The test system of assay [7] is MALME-3M melanoma.
Assay [8] has as its system BT-549 breast.
Assay [9] concerns PC-3 prostate.
Assay [10] deals with NCI/ADR-RES ovarian.

Consider `CCCCCCCCCCCCCP(=O)(O)NCC(N)=O`, for which the TGI in assay [1], in assay [2], in assay [3], in assay [4], in assay [5] and in assay [6] was over 100 µM in each case. In assay [7], this compound returned a TGI of over 100 µM.
As to `C=C1CCC2[C@@H](CCC3[C@]2(C)CCC[C@]3(C)C(=O)OC)[C@@H]1CC=O` (some centres not stated), the TGI in [1] was over 100 µM; in assay [2], 57.6 µM; in [3], 82 µM; in assay [4], 64.2 µM; in assay [5] it was over 100 µM; in [6], 37.6 µM. In [7], this compound had a TGI of 87.7 µM. Also, the GI50 in [2] is 19.1 µM; in assay [5], 39.3 µM.
On to `COc1ccc(C(Cl)=C(c2ccc(OCCN(C)C)cc2)c2ccc(OCCN(C)C)cc2)cc1`, for which the TGI in [1] came out at 3.42 µM; in assay [2] it was 3.83 µM; in assay [3] it was 4.72 µM; in assay [4], 3.83 µM; in assay [5] it was 2.83 µM; in assay [6], 2.75 µM. Besides, the TGI in assay [7] was 3.35 µM.
Regarding `O=C(NC1CCCC1=O)c1ccccc1` (configuration not stated), the TGI in [1], in assay [3], in assay [4], in assay [5], in assay [6] and in [7] was over 100 µM in each case.
As for `Cc1cc(N(CCC#N)CCC#N)ccc1/C=C1/N=C(c2ccccc2)N(N)C1=O`, the TGI in assay [1], in [2], in assay [3], in [4], in [5] and in assay [6] was over 100 µM in each case. For the same compound, the TGI in [7] was over 100 µM.
As to `N#Cc1ccc(N=Cc2c([O-])ccc3ccccc23)cc1.[C-]#[O+].[C-]#[O+].[Ir]`, the GI50 in [2] is 5 µM; in [3], 6.32 µM; in [4], 1.67 µM; in assay [5], 16.6 µM; in assay [6], 1.93 µM; in assay [7] it was 4.42 µM. Moreover, the TGI in assay [2] turned out to be 25.1 µM; in [3] it was 18.7 µM; in assay [4], 7.1 µM; in [5], 30.2 µM; in [6], 4.09 µM; in assay [7], 15.1 µM.
As for `COc1cc2nc(NCCCCCNC(=O)c3ccco3)nc(N)c2cc1OC`, the TGI in assay [1] was 95.6 µM; in assay [2], over 100 µM; in [3], over 100 µM; in assay [4], 88.2 µM; in assay [5], 62.4 µM; in assay [6] it was 58.1 µM. The compound further had a TGI in assay [7] of 33.3 µM.
Consider `CN1COc2c(n(C)c(=O)[nH]c2=O)C1`, for which the TGI in assay [1] was over 100 µM; in [2] it was 90.8 µM; in assay [3], over 100 µM; in [4], over 100 µM; in assay [5], over 100 µM; in assay [6] it was over 100 µM. In assay [7], this compound showed a TGI of over 100 µM.
On to `CN(C)CCC(/C=C/c1ccccc1)=N\Nc1ccc(Cl)cc1Cl`, for which the TGI in assay [2] worked out at 30.1 µM; in assay [3], 25.5 µM; in assay [4], 25.8 µM; in assay [5], 29.7 µM; in [6] it was 27.9 µM; in assay [7], 41.2 µM.
For `CN1CCN(Cc2ccc(NC(=O)c3[nH]ncc3Nc3ncnc4sc5c(c34)CCCC5)cc2)CC1`, the GI50 in assay [2] was 0.37 µM; in assay [8], 1.23 µM; in assay [3], 0.19 µM; in assay [4], 0.179 µM; in assay [5] it was 0.222 µM; in assay [6] it was 0.194 µM. The GI50 in assay [7] was 1.35 µM; in assay [9], 0.198 µM. In addition, the TGI in assay [2] amounted to 1.04 µM; in assay [8] it was 2.65 µM; in assay [3], 0.969 µM; in assay [4], 0.823 µM; in assay [5], 1.29 µM; in [6] it was 1.05 µM. For the same compound, the TGI came out at 2.82 µM in assay [7] and 1.33 µM in [9].
With `COC(CN1C=C(Sc2ccccc2)CC1)OC`, the TGI is over 100 µM in assay [1]; 50.7 µM in assay [2]; over 100 µM in assay [3]; 62.8 µM in assay [4]; 67.8 µM in assay [5]; 47.9 µM in assay [6]. In assay [7], this compound yielded a TGI of over 100 µM.
In the case of `COC(=O)C(C)(C)N=CN(C)C`, the TGI in assay [1], in assay [3], in assay [4], in [5], in [6] and in [7] was over 100 µM in each case.
`c1ccc2c3c([nH]c2c1)C1CCCN1CC3` (configuration not stated): the TGI in [10], in [1], in assay [2], in assay [3], in assay [4] and in assay [5] was over 10 µM in each case. The TGI in assay [6], in [7] and in assay [9] was over 10 µM in each case.
Regarding `c1ccc(P(=Nc2ccccc2N=P(c2ccccc2)(c2ccccc2)c2ccccc2)(c2ccccc2)c2ccccc2)cc1`, the TGI was 1.38 µM in [1]; 12.6 µM in assay [2]; 10.2 µM in [3]; 13 µM in [4]; 12.8 µM in assay [5]; 14.3 µM in assay [6].
In the case of `CC1(C)C2CCC13CS(=O)(=O)N1O[C@]13C(=O)O2` (some centres not stated), the TGI in assay [1], in assay [2], in [3], in [5], in assay [6] and in assay [7] was over 100 µM in each case.
With `COC(=O)CC1NC(=O)C1C1(C)OCCO1` (configuration not stated), the TGI in assay [1], in [2], in assay [3], in assay [6] and in assay [7] was over 100 µM throughout.
Take `Cc1nc2ccccc2c(/C=C/c2ccc(Br)cc2)c1C(=O)/C=C/c1ccccc1`: the GI50 in [10] was 2.13 µM; in [1], 1.67 µM; in assay [2] it was 1.38 µM; in assay [8], 1.86 µM; in assay [3], 1.64 µM; in [4], 1.48 µM. The GI50 in [5] was 1.95 µM; in assay [6], 1.54 µM; in assay [7] it was 1.7 µM. The TGI is 5.31 µM in assay [10]; 3.35 µM in [1]; 5.1 µM in assay [2]; 4.49 µM in assay [8]; 3.02 µM in assay [3]; over 100 µM in assay [4]. The TGI in [5] was 4.37 µM; in [6], 4.45 µM; in assay [7], 3.12 µM.
With `COC12c3ccccc3-c3ccccc3C1[C@H]1C(=O)OC(=O)[C@H]12` (some centres not stated), the TGI in [10], in [1], in assay [2], in assay [3], in assay [4] and in assay [5] was over 10 µM each time. For the same compound, the TGI in assay [6], in assay [7] and in [9] was over 10 µM in each case.
In the case of `C/C=C(\C)c1cc(O)c(C)c2c1Oc1cc(O)c(Cl)c(C)c1C(=O)O2`, the TGI in [1] is 33.6 µM; in assay [3], 54.6 µM; in [5], 47.6 µM; in assay [6], 37.4 µM.
Turning to `COc1cc(-c2cc(-c3cc([N+](=O)[O-])c(/C=N/NC(=O)c4ccncc4)o3)ccc2OC)ccc1C`, the TGI in assay [1], in [2], in assay [3], in assay [6] and in [7] was over 100 µM in each case.
As to `O=C([CH-]C(=O)c1ccccc1)c1ccccc1.O=C([CH-]C(=O)c1ccccc1)c1ccccc1.[OH-].[OH-].[Ti+4]`, the GI50 in [1] was 58 µM; in assay [2], 41.3 µM; in assay [3], over 100 µM; in assay [5], over 100 µM; in assay [6] it was 49 µM; in [7], over 100 µM. Also, the TGI in assay [1], in [2], in assay [3], in [5], in assay [6] and in [7] was over 100 µM each time.
For `CCCCCCN(N)C(=O)CC#N`, the TGI in assay [1] was over 100 µM; in assay [2], 58.5 µM; in assay [3], over 100 µM; in [4], over 100 µM; in assay [5], over 100 µM; in assay [6], over 100 µM. This compound had a TGI in assay [7] of over 100 µM.
As to `Fc1cccc(C2SCc3nc4ccccc4n32)c1F` (configuration not stated), the TGI in assay [1], in [2], in assay [3], in [4], in [5] and in assay [6] was over 100 µM throughout. Besides, the TGI in assay [7] was over 100 µM.
Turning to `COCCOCOc1ccc(OCOCCOC)c2c1C(=O)c1ccccc1C2=O`, the TGI in assay [1], in assay [3], in [4], in [5], in assay [6] and in [7] was over 100 µM in each case.
With `Cc1ccc(S(=O)OC2C3CC4CC(C3)CC2C4)cc1` (configuration not stated), the TGI in [1], in assay [2], in [3], in [5], in assay [6] and in [7] was over 100 µM each time.
As for `O=P1(Oc2ccccc2)C(c2ccccc2)C(c2ccccc2)=NN1c1ccccc1` (configuration not stated), the TGI was 55 µM in assay [1]; 77.6 µM in assay [3]; over 100 µM in [4]; 64.4 µM in assay [5]; 53.1 µM in [6]; over 100 µM in [7].
On to `O=C(O)/C(Cl)=C(\Cl)C(=O)Nc1ccc(Cl)c(Cl)c1Cl`, for which the TGI was 35.5 µM in [1]; 88.3 µM in [2]; 32 µM in [3]; over 100 µM in assay [4]; 36.6 µM in assay [5]; 35.3 µM in assay [6]. In addition, the TGI in assay [7] was found to be 34.9 µM.
`Cn1c2ccccc2n2c(=O)c3c(c(C#N)c12)CCCC3`: the TGI in assay [1], in [2], in [3], in assay [5], in assay [6] and in assay [7] was over 100 µM throughout.
Turning to `CN(C)c1ccc(/C=C2\C=Cc3ccccc32)cc1`, the TGI in [2], in [3], in [4], in assay [5], in assay [6] and in [7] was over 100 µM throughout.
Consider `Cc1cc2c(c(C(=O)O)c1C)-c1cccc(F)c1C2=O`, for which the TGI in [1], in [2], in [3], in assay [4], in assay [5] and in assay [6] was over 100 µM each time. For the same compound, the TGI in assay [7] was over 100 µM.
As to `CNS(=O)(=O)NNS(=O)(=O)c1ccc(Cl)cc1`, the TGI in assay [2], in assay [3], in [4], in assay [5], in [6] and in [7] was over 100 µM throughout.
Take `CC1(C)OCC(C(O)C2OC(C)(C)OC2/C=N\O)O1` (configuration not stated): the TGI in assay [2], in assay [3], in assay [4], in assay [5], in [6] and in assay [7] was over 100 µM throughout.
`CC1CN1c1c(C(=O)/C=C/c2ccccc2)c(-c2ccccc2)nn(C)c1=O` (configuration not stated): the TGI in assay [1] was 45.3 µM; in assay [3], 33.7 µM; in assay [4] it was 37.9 µM; in assay [5], 44.2 µM; in [6], 39.8 µM; in assay [7], 34.9 µM.

The values above are taken from PubChem BioAssay (NCI).
